Data as given in ChEMBL document CHEMBL5331090, “Modes of action insights from the crystallographic structures of retinoic acid receptor-related orphan receptor-γt (RORγt)” (Eur J Med Chem, 2023).

Legend:
[1] = Antagonist activity at RORgammat LBD (unknown origin)/NCoR2 (unknown origin) interaction; design: species or system Homo sapiens
[2] = target: T1, Nuclear receptor ROR-gamma (Homo sapiens, UniProt P51449); assay: Antagonist activity at RORgammat LBD (unknown origin) LBD
T1 sequence (P51449 whole entry): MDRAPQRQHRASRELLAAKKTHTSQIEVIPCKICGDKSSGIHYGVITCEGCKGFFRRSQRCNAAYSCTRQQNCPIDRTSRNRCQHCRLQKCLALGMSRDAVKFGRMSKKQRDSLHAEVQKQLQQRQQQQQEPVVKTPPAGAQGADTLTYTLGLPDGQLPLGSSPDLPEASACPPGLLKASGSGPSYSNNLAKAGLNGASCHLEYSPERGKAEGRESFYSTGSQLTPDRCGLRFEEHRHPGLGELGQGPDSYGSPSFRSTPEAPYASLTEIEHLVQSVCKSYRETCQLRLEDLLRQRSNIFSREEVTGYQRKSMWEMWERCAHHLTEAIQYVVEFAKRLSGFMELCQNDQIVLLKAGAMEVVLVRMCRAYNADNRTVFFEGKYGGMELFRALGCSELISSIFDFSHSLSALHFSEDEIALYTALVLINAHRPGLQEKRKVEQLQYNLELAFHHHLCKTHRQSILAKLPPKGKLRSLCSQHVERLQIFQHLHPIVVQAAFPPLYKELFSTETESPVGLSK

C[C@H]1O[C@@H](O[C@H]2[C@@H](O)C[C@H](O[C@H]3[C@@H](O)C[C@H](O[C@H]4CC[C@@]5(C)[C@H](CC[C@@H]6[C@@H]5C[C@@H](O)[C@]5(C)[C@@H](C7=CC(=O)OC7)CC[C@]65O)C4)O[C@@H]3C)O[C@@H]2C)C[C@H](O)[C@@H]1O [DIGOXIN]
IC50 [1]: 3900 nM | IC50 [2]: 1800 nM
